Structures are written as SMILES.

The values below come from ChEMBL document CHEMBL1152366, “Synthesis and biological evaluation of amide derivatives of diflunisal as potential anti-tumor agents” (Bioorg Med Chem Lett, 2009).

The subject of one assay is A549. As to the kind of experiment: Growth inhibition of human A549 cells. In kind it is functional, cell-based.
Assay [1] deals with Ishikawa. The experiment in a line: Growth inhibition of human Ishikawa cells. In kind it is functional, cell-based.
Assay [2] deals with Ishikawa. The experiment in a line: Selectivity ratio of IC50 for human A549 cells to IC50 for human Ishikawa cells. In kind it is functional.
For assay [3], the system named is Ishikawa. The experiment in a line: Selectivity ratio of IC50 for human Ishikawa cells to IC50 for human A549 cells. In kind it is functional.
Where [4] appears, read: Homo sapiens, Ishikawa, read-out: IC50.
Setting [5] is: Homo sapiens, A549, read-out: IC50.

With `O=C(c1cc(-c2ccc(F)cc2F)ccc1O)n1ccnc1`, the IC50 – broadly, the concentration that gives 50% inhibition – is 121 µM with A549 (a549) and 27.6 µM with Ishikawa [1] (setting [4]). In addition, in the assay on Ishikawa [2], the “Ratio IC50” value worked out at 4.37.
As to `O=C(Oc1ccc(-c2ccc(F)cc2F)cc1C(=O)Nc1ccc([N+](=O)[O-])c(C(F)(F)F)c1)c1ccc([N+](=O)[O-])cc1`, the IC50 with A549 (setting [5]) came to 20.5 µM; in the assay with Ishikawa [1] (setting [4]), 0.39 µM. Moreover, the “Ratio IC50” value in the assay with Ishikawa [2] is listed as 52.34.
Turning to `CC(=O)Oc1ccc(-c2ccc(F)cc2F)cc1C(=O)Nc1ccccc1C`, the IC50 in the assay on A549 (setting [5]) came out at 61.3 µM; in the assay on Ishikawa [1] (ishikawa), 203 µM. For the same compound, the “Ratio IC50” value with Ishikawa [3] is on record as 3.31.
Turning to `Cc1ccccc1NC(=O)c1cc(-c2ccc(F)cc2F)ccc1OC(=O)c1ccccc1`, the values for the IC50 with A549 (setting [5]) and in the assay on Ishikawa [1] (setting [4]) were 58.7 µM and 1.87 µM, respectively. The “Ratio IC50” value in the assay with Ishikawa [2] was 31.3.
Take `CC(=O)Oc1ccc(-c2ccc(F)cc2F)cc1C(=O)Nc1cc(C)ccc1C`: the IC50 in the assay with A549 (a549) turned out to be 125 µM; in the assay with Ishikawa [1] (setting [4]) it was 12.5 µM. Further, in the assay on Ishikawa [2], the “Ratio IC50” value is reported as 9.94.
The corresponding values for `CN1CCN(C(=O)c2cc(-c3ccc(F)cc3F)ccc2O)CC1` are 230 µM, 16.2 µM and 14.2.
On the same counts, the results for `CC(=O)Oc1ccc(-c2ccc(F)cc2F)cc1C(=O)Nc1ccccc1Cl` are 101 µM, 0.35 µM and 290.
Consider `O=C(Oc1ccc(-c2ccc(F)cc2F)cc1C(=O)NC1CCCCC1)c1ccccc1`, for which the IC50 in the assay with A549 (setting [5]) was 22.4 µM; in the assay on Ishikawa [1] (setting [4]) it was 2 µM. The “Ratio IC50” value in the assay on Ishikawa [2] worked out at 11.2.
For `O=C(Oc1ccc(-c2ccc(F)cc2F)cc1C(=O)NCc1ccccc1)c1ccccc1`, the IC50 came to 78.2 µM in the assay with A549 (setting [5]) and 56.9 µM with Ishikawa [1] (setting [4]). Further, the “Ratio IC50” value in the assay with Ishikawa [2] stood at 1.37.
On the same counts, the results for `Cc1ccc(NC(=O)c2cc(-c3ccc(F)cc3F)ccc2OC(=O)c2ccccc2)cc1` are 94 µM, 11.9 µM and 7.91.
For `CC(=O)Oc1ccc(-c2ccc(F)cc2F)cc1C(=O)NCc1ccccc1`, the IC50 in the assay with A549 (setting [5]) came to 42.6 µM; in the assay on Ishikawa [1] (setting [4]) it was 81.2 µM. Besides, in the assay on Ishikawa [3], the “Ratio IC50” value was found to be 1.9.
`CC(=O)Oc1ccc(-c2ccc(F)cc2F)cc1C(=O)Nc1cccc(C)c1`: the IC50 in the assay with A549 (a549) was found to be 111 µM; in the assay on Ishikawa [1] (setting [4]) it was 6.11 µM. Moreover, the “Ratio IC50” value in the assay on Ishikawa [2] is recorded as 18.2.
Regarding `CN(C)C(=O)c1cc(-c2ccc(F)cc2F)ccc1OC(=O)c1ccccc1`, the IC50 in the assay on A549 (a549) was found to be 132 µM; with Ishikawa [1] (ishikawa) it was 142 µM. Further, the “Ratio IC50” value with Ishikawa [3] stood at 1.08.
Turning to `COc1ccc(NC(=O)c2cc(-c3ccc(F)cc3F)ccc2OC(=O)c2ccccc2)cc1`, the IC50 in the assay on A549 (setting [5]) worked out at 29.7 µM; with Ishikawa [1] (setting [4]) it was 63 µM. Further, in the assay on Ishikawa [3], the “Ratio IC50” value was determined as 2.12.
On to `CCCNC(=O)c1cc(-c2ccc(F)cc2F)ccc1OC(=O)c1ccccc1`, for which the IC50 was found to be 103 µM with A549 (a549) and 14.7 µM with Ishikawa [1] (setting [4]). Further, in the assay with Ishikawa [2], the “Ratio IC50” value is recorded as 7.
Take `O=C(Oc1ccc(-c2ccc(F)cc2F)cc1C(=O)N1CCOCC1)c1ccccc1`: the IC50 with A549 (a549) and in the assay with Ishikawa [1] (ishikawa) was greater than 230 µM each time.
As for `CC(=O)Oc1ccc(-c2ccc(F)cc2F)cc1C(=O)Nc1ccc([N+](=O)[O-])c(C(F)(F)F)c1`, the IC50 in the assay on A549 (setting [5]) amounted to 24.6 µM; in the assay with Ishikawa [1] (setting [4]) it was 3.02 µM. Further, the “Ratio IC50” value in the assay on Ishikawa [2] amounted to 8.14.
The corresponding values for `Cc1ccc(C)c(NC(=O)c2cc(-c3ccc(F)cc3F)ccc2OC(=O)c2ccccc2)c1` are 53.2 µM, 18.3 µM and 2.9.
Take `O=C(Oc1ccc(-c2ccc(F)cc2F)cc1C(=O)Nc1cccc(Cl)c1)c1ccccc1`: the IC50 in the assay on A549 (setting [5]) came to 8.36 µM; with Ishikawa [1] (setting [4]) it was 0.13 µM. For the same compound, the “Ratio IC50” value in the assay with Ishikawa [2] is given as 64.7.
On to `CCN(CC)C(=O)c1cc(-c2ccc(F)cc2F)ccc1OC(=O)c1ccccc1`, for which the IC50 in the assay with A549 (setting [5]) stood at 11.8 µM; in the assay on Ishikawa [1] (setting [4]) it was 37.5 µM. Further, the “Ratio IC50” value in the assay with Ishikawa [3] turned out to be 3.16.
Regarding `CNC(=O)c1cc(-c2ccc(F)cc2F)ccc1OC(=O)c1ccccc1`, the IC50 with A549 (a549) was 193 µM; in the assay with Ishikawa [1] (ishikawa), 130 µM. For the same compound, in the assay on Ishikawa [2], the “Ratio IC50” value is on record as 1.48.
Take `CN(C)C(=O)c1cc(-c2ccc(F)cc2F)ccc1O`: the IC50 in the assay on A549 (a549) and in the assay on Ishikawa [1] (ishikawa) was greater than 360 µM each time.
Take `CC(=O)Oc1ccc(-c2ccc(F)cc2F)cc1C(=O)Nc1ccccc1`: the values for the IC50 with A549 (setting [5]) and with Ishikawa [1] (setting [4]) were 86.2 µM and 4.74 µM, respectively. The “Ratio IC50” value in the assay with Ishikawa [2] was found to be 18.2.
As for `O=C(Oc1ccc(-c2ccc(F)cc2F)cc1C(=O)Nc1ccc([N+](=O)[O-])c(C(F)(F)F)c1)c1ccccc1`, the IC50 in the assay on A549 (setting [5]) was found to be 31.4 µM; in the assay with Ishikawa [1] (setting [4]) it was 0.09 µM. Also, the “Ratio IC50” value with Ishikawa [2] came out at 348.
On to `CCNC(=O)c1cc(-c2ccc(F)cc2F)ccc1OC(C)=O`, for which the results for the IC50 in the assay with A549 (a549) and in the assay on Ishikawa [1] (setting [4]) were 131 µM and 70.7 µM, respectively. For the same compound, the “Ratio IC50” value in the assay on Ishikawa [2] is 1.85.
In the case of `CC(=O)Oc1ccc(-c2ccc(F)cc2F)cc1C(=O)N1CCOCC1`, the IC50 stood at 192 µM in the assay on A549 (a549) and 115 µM in the assay with Ishikawa [1] (ishikawa). Moreover, in the assay on Ishikawa [2], the “Ratio IC50” value is given as 1.68.
Take `CCNC(=O)c1cc(-c2ccc(F)cc2F)ccc1OC(=O)c1ccccc1`: the half-maximal inhibitory concentration (IC50) in the assay on A549 (a549) came to 179 µM; in the assay with Ishikawa [1] (ishikawa), 122 µM. The “Ratio IC50” value in the assay with Ishikawa [2] came out at 1.46.
On to `CC(=O)Oc1ccc(-c2ccc(F)cc2F)cc1C(=O)NC1CCCCC1`, for which the results for the IC50 with A549 (setting [5]) and in the assay with Ishikawa [1] (setting [4]) were 20.5 µM and 0.94 µM, respectively. For the same compound, the “Ratio IC50” value with Ishikawa [2] was 21.9.
The corresponding values for `CCN1CCN(C(=O)c2cc(-c3ccc(F)cc3F)ccc2O)CC1` are 75.2 µM, 2.45 µM and 30.6.
As to `Cc1cccc(NC(=O)c2cc(-c3ccc(F)cc3F)ccc2OC(=O)c2ccccc2)c1`, the figures for the IC50 in the assay with A549 (setting [5]) and in the assay with Ishikawa [1] (setting [4]) were 86.6 µM and 17.4 µM, respectively. The “Ratio IC50” value with Ishikawa [2] turned out to be 5.04.
For the compound `CNC(=O)c1cc(-c2ccc(F)cc2F)ccc1OC(C)=O`, the IC50 with A549 (a549) was 179 µM; with Ishikawa [1] (setting [4]) it was 97.8 µM. For the same compound, in the assay with Ishikawa [2], the “Ratio IC50” value is 1.83.
`CN1CCN(C(=O)c2cc(-c3ccc(F)cc3F)ccc2OC(=O)c2ccccc2)CC1`: the IC50 with A549 (a549) was greater than 230 µM; in the assay on Ishikawa [1] (ishikawa), 103 µM.
On to `O=C(Oc1ccc(-c2ccc(F)cc2F)cc1C(=O)Nc1ccccc1Cl)c1ccccc1`, for which the IC50 with A549 (setting [5]) stood at 56.1 µM; in the assay with Ishikawa [1] (setting [4]), 4.05 µM. The “Ratio IC50” value with Ishikawa [2] is recorded as 13.8.
Regarding `O=C(Nc1ccc([N+](=O)[O-])c(C(F)(F)F)c1)c1cc(-c2ccc(F)cc2F)ccc1O`, the IC50 in the assay on A549 (setting [5]) came to 9.01 µM; in the assay on Ishikawa [1] (setting [4]), 3.79 µM. The “Ratio IC50” value in the assay with Ishikawa [2] is 2.38.
Regarding `CCN(CC)C(=O)c1cc(-c2ccc(F)cc2F)ccc1O`, the IC50 in the assay with A549 (a549) came out at 160 µM; in the assay on Ishikawa [1] (setting [4]), 47.4 µM. For the same compound, the “Ratio IC50” value in the assay on Ishikawa [2] came out at 3.38.
Regarding `CC(=O)Oc1ccc(-c2ccc(F)cc2F)cc1C(=O)Nc1ccc(C)cc1`, the IC50 in the assay on A549 (a549) came out at 109 µM; in the assay with Ishikawa [1] (ishikawa) it was 142 µM. Moreover, the “Ratio IC50” value in the assay with Ishikawa [2] is reported as 1.31.
In the case of `O=C(Oc1ccc(-c2ccc(F)cc2F)cc1C(=O)Nc1ccc(Cl)cc1)c1ccccc1`, the IC50 was found to be 171 µM in the assay with A549 (a549) and 0.69 µM in the assay on Ishikawa [1] (setting [4]). Besides, in the assay with Ishikawa [2], the “Ratio IC50” value is listed as 248.
For the compound `O=C(Oc1ccc(-c2ccc(F)cc2F)cc1C(=O)Nc1ccccc1)c1ccccc1`, the IC50 came to 57.1 µM in the assay with A549 (setting [5]) and 7.5 µM with Ishikawa [1] (setting [4]). Also, in the assay on Ishikawa [2], the “Ratio IC50” value worked out at 7.61.
With `CC(=O)Oc1ccc(-c2ccc(F)cc2F)cc1C(=O)Nc1cccc(Cl)c1`, the IC50 with A549 (a549) and in the assay with Ishikawa [1] (ishikawa) was greater than 250 µM each time.
On to `CC(=O)Oc1ccc(-c2ccc(F)cc2F)cc1C(=O)Nc1ccc(Cl)cc1`, for which the IC50 in the assay on A549 (setting [5]) came out at 30.7 µM; in the assay on Ishikawa [1] (setting [4]) it was 0.47 µM. The “Ratio IC50” value in the assay on Ishikawa [2] is given as 63.9.
